Data as given in US20080300231A1, “Antibacterial amide macrocycles VI” (priority 2005, published 2008).
pIC50: −log10 of the molar value.

Target: S. aureus 133 Translation
Test: S. aureus in vitro transcription-translation assay (firefly luciferase, S30 extract)
Assay type: biochemical
Details: 50% inhibition of the translation of firefly luciferase
Source text: In Vitro Transcription-Translation with S. aureus Extracts
Construction of an S. aureus luciferase Reporter Plasmid
In order to construct a reporter plasmid which can be used in an in vitro transcription-translation assay from S. aureus the plasmid pBESTluc (Promega Corporation, USA) is used. The E. coli tac promoter present in this plasmid in front of the firefly luciferase is replaced with the capA1 promoter with appropriate Shine-Dalgarno sequence from S. aureus. The primers CAPFor 5′-CGGCCAAGCTTACTC-[…] […]-3′ and CAPRev 5′-[…]-3′ are used for this. The primer CAPFor contains the capA1 promoter, the ribosome binding site and the 5′ region of the luciferase gene. After PCR using pBESTluc as template it is possible to isolate a PCR product which contains the firefly luciferase gene with the fused capA1 promoter. This is, after restriction with ClaI and HindIII, ligated into the vector pBESTluc which has likewise been digested with ClaI and HindIII. The resulting plasmid p1a can be replicated in E. coli and can be used as template in the S. aureus in vitro transcription-translation test.
Preparation of S30 Extracts from S. aureus
Six litres of BHI medium are inoculated with a 250 ml overnight culture of an S. aureus strain and allowed to grow at 37° C. until the OD600 nm is 2-4. The cells are harvested by centrifugation and washed in 500 ml of cold buffer A (10 mM Tris acetate, pH 8.0, 14 mM magnesium acetate, 1 mM DTT, 1 M KCl). After renewed centrifugation, the cells are washed in 250 ml of cold buffer A with 50 mM KCl, and the resulting pellets are frozen at −20° C. for 60 min. The pellets are thawed on ice in 30 to 60 min and taken up to a total volume of 99 ml in buffer B (10 mM Tris acetate, pH 8.0, 20 mM magnesium acetate, 1 mM DTT, 50 mM KCl). 1.5 ml portions of lysostaphin (0.8 mg/ml) in buffer B are introduced into 3 precooled centrifuge cups and mixed with 33 ml of the cell suspension each. The samples are incubated at 37° C., shaking occasionally, for 45 to 60 min, before 150 μl of a 0.5 M DTT solution are added. The lysed cells are centrifuged at 30 000×g and 4° C. for 30 min. The cell pellet is taken up in buffer B and then centrifuged again under the same conditions, and the collected supernatants are combined. The supernatants are centrifuged again under the same conditions, and 0.25 volumes of buffer C (670 mM Tris acetate, pH 8.0, 20 mM magnesium acetate, 7 mM Na3 phosphoenolpyruvate, 7 mM DTT, 5.5 mM ATP, 70 μM amino acids (complete from Promega), 75 μg of pyruvate kinase (Sigma, Germany))/ml are added to the upper ⅔ of the supernatant. The samples are incubated at 37° C. for 30 min. The supernatants are dialysed against 2 l of dialysis buffer (10 mM Tris acetate, pH 8.0, 14 mM magnesium acetate, 1 mM DTT, 60 mM potassium acetate) in a dialysis tube with a 3500 Da cut-off with one buffer change at 4° C. overnight. The dialysate is concentrated to a protein concentration of about 10 mg/ml by covering the dialysis tube with cold PEG 8000 powder (Sigma, Germany) at 4° C. The S30 extracts can be stored in aliquots at −70° C.
Determination of the IC50 in the S. aureus In Vitro Transcription-Translation Assay
The inhibition of protein biosynthesis of the compounds can be shown in an in vitro transcription-translation assay. The assay is based on the cell-free transcription and translation of firefly luciferase using the reporter plasmid p1a as template and cell-free S30 extracts obtained from S. aureus. The activity of the resulting luciferase can be detected by luminescence measurement.
The amount of S30 extract or plasmid p1a to be employed must be tested anew for each preparation in order to ensure an optimal concentration in the assay. 3 μl of the substance to be tested, dissolved in 5% DMSO, are provided in an MTP. Then […] of a suitably concentrated plasmid solution p1a are added. […]

NC[C@H](O)C[C@@H]1NC(=O)[C@@H](N)Cc2cc(ccc2O)-c2ccc(O)c(c2)C[C@@H](C(=O)O)NC1=O [Biphenomycin B, biphenomycin B, reference compound]
pIC50: 5.82
